Laboratory results as given in ChEMBL document CHEMBL4316596, “Antimicrobial Peptides with High Proteolytic Resistance for Combating Gram-Negative Bacteria” (J Med Chem, 2019).
≈ marks a conversion by molar mass, not a printed value. Positions of bridges follow the written chain, without caps; N, C: chain ends. Non-standard residues stand in square brackets, D forms with d. Residues, ends and D or L forms follow the SMILES beside them. *: point of attachment. X1 = CC[C@H](C)CCCCC(=O)*; Dab = NCC[C@H](N)C(=O)O

Assays:
Escherichia coli [1] = assay: Antimicrobial activity against Escherichia coli ATCC 25922 after 24 hrs by NCCLS-protocol based assay; type: functional; settings: ATCC 25922, 24 h
Escherichia coli [2] = assay: Antimicrobial activity against Escherichia coli UB1005 after 24 hrs by NCCLS-protocol based assay; type: functional; settings: UB1005, 24 h
Escherichia coli [3] = assay: Antimicrobial activity against Escherichia coli 078 after 24 hrs by NCCLS-protocol based assay; type: functional; settings: Escherichia coli, 078, 24 h
Escherichia coli [4] = assay: Antimicrobial activity against Escherichia coli K88 after 24 hrs by NCCLS-protocol based assay; type: functional; settings: K88, 24 h
Escherichia coli [5] = assay: Antimicrobial activity against Escherichia coli K99 after 24 hrs by NCCLS-protocol based assay; type: functional; settings: K99, 24 h
Pseudomonas aeruginosa [6] = assay: Antimicrobial activity against Pseudomonas aeruginosa ATCC 27853 after 24 hrs by NCCLS-protocol based assay; type: functional; settings: ATCC 27853, 24 h
Pseudomonas aeruginosa [7] = assay: Antimicrobial activity against Pseudomonas aeruginosa PAO1 after 24 hrs by NCCLS-protocol based assay; type: functional; settings: PAO1, 24 h
Pseudomonas aeruginosa [8] = assay: Antimicrobial activity against Pseudomonas aeruginosa CICC 21630 clinical isolates after 24 hrs by NCCLS-protocol based assay; type: functional; settings: CICC 21630, 24 h
Pseudomonas aeruginosa [9] = assay: Antimicrobial activity against Pseudomonas aeruginosa 26305 clinical isolates after 24 hrs by NCCLS-protocol based assay; type: functional; settings: Pseudomonas aeruginosa, 26305, 24 h
Pseudomonas aeruginosa [10] = assay: Antimicrobial activity against Pseudomonas aeruginosa CICC 21625 clinical isolates after 24 hrs by NCCLS-protocol based assay; type: functional; settings: CICC 21625, 24 h
Pseudomonas aeruginosa [11] = assay: Antimicrobial activity against Pseudomonas aeruginosa 25349 clinical isolates after 24 hrs by NCCLS-protocol based assay; type: functional; settings: Pseudomonas aeruginosa, 25349, 24 h
Salmonella typhimurium [12] = assay: Antimicrobial activity against Salmonella typhimurium ATCC 14028 after 24 hrs by NCCLS-protocol based assay; type: functional, Salmonella enterica subsp. enterica serovar Typhimurium; settings: Salmonella enterica, ATCC 14028, 24 h
Salmonella typhimurium [13] = assay: Antimicrobial activity against Salmonella typhimurium C7731 after 24 hrs by NCCLS-protocol based assay; type: functional, Salmonella enterica subsp. enterica serovar Typhimurium; settings: Salmonella enterica, C7731, 24 h
[14] = Antimicrobial activity against Salmonella pullorum C7913 after 24 hrs by NCCLS-protocol based assay; type: functional, Salmonella enterica subsp. enterica serovar Pullorum; settings: Salmonella enterica, C7913, 24 h
Acinetobacter baumannii [15] = assay: Antimicrobial activity against Acinetobacter baumannii after 24 hrs by NCCLS-protocol based assay; type: functional
Klebsiella pneumoniae [16] = assay: Antimicrobial activity against Klebsiella pneumoniae after 24 hrs by NCCLS-protocol based assay; type: functional
Escherichia coli [17] = assay: Bactericidal activity against Escherichia coli ATCC 25922 incubated for 4 hrs followed by culture spread on agar plates and cultured overnight; type: functional; settings: ATCC 25922, 4 h, read-out: MBC>99.9
Escherichia coli [18] = assay: Bactericidal activity against Escherichia coli UB1005 incubated for 4 hrs followed by culture spread on agar plates and cultured overnight; type: functional; settings: UB1005, 4 h, read-out: MBC>99.9
Escherichia coli [19] = assay: Bactericidal activity against Escherichia coli 078 incubated for 4 hrs followed by culture spread on agar plates and cultured overnight; type: functional; settings: Escherichia coli, 078, 4 h; read-out: MBC>99.9
Escherichia coli [20] = assay: Bactericidal activity against Escherichia coli K88 incubated for 4 hrs followed by culture spread on agar plates and cultured overnight; type: functional; settings: K88, 4 h, read-out: MBC>99.9
Escherichia coli [21] = assay: Bactericidal activity against Escherichia coli K99 incubated for 4 hrs followed by culture spread on agar plates and cultured overnight; type: functional; settings: K99, 4 h, read-out: MBC>99.9
Pseudomonas aeruginosa [22] = assay: Bactericidal activity against Pseudomonas aeruginosa ATCC 27853 incubated for 4 hrs followed by culture spread on agar plates and cultured overnight; type: functional; settings: ATCC 27853, 4 h, read-out: MBC>99.9
Pseudomonas aeruginosa [23] = assay: Bactericidal activity against Pseudomonas aeruginosa PAO1 incubated for 4 hrs followed by culture spread on agar plates and cultured overnight; type: functional; settings: PAO1, 4 h, read-out: MBC>99.9
Pseudomonas aeruginosa [24] = assay: Bactericidal activity against Pseudomonas aeruginosa CICC 21630 clinical isolates incubated for 4 hrs followed by culture spread on agar plates and cultured overnight; type: functional; settings: CICC 21630, 4 h, read-out: MBC>99.9
Pseudomonas aeruginosa [25] = assay: Bactericidal activity against Pseudomonas aeruginosa 26305 clinical isolates incubated for 4 hrs followed by culture spread on agar plates and cultured overnight; type: functional; settings: Pseudomonas aeruginosa, 26305, 4 h; read-out: MBC>99.9
Pseudomonas aeruginosa [26] = assay: Bactericidal activity against Pseudomonas aeruginosa CICC 21625 clinical isolates incubated for 4 hrs followed by culture spread on agar plates and cultured overnight; type: functional; settings: CICC 21625, 4 h, read-out: MBC>99.9
Pseudomonas aeruginosa [27] = assay: Bactericidal activity against Pseudomonas aeruginosa 25349 clinical isolates incubated for 4 hrs followed by culture spread on agar plates and cultured overnight; type: functional; settings: Pseudomonas aeruginosa, 25349, 4 h; read-out: MBC>99.9
Salmonella typhimurium [28] = assay: Bactericidal activity against Salmonella typhimurium ATCC 14028 incubated for 4 hrs followed by culture spread on agar plates and cultured overnight; type: functional, Salmonella enterica subsp. enterica serovar Typhimurium; settings: Salmonella enterica, ATCC 14028, 4 h; read-out: MBC>99.9
Salmonella typhimurium [29] = assay: Bactericidal activity against Salmonella typhimurium C7731 incubated for 4 hrs followed by culture spread on agar plates and cultured overnight; type: functional, Salmonella enterica subsp. enterica serovar Typhimurium; settings: Salmonella enterica, C7731, 4 h; read-out: MBC>99.9
[30] = Bactericidal activity against Salmonella pullorum C7913 incubated for 4 hrs followed by culture spread on agar plates and cultured overnight; type: functional, Salmonella enterica subsp. enterica serovar Pullorum; settings: Salmonella enterica, C7913, 4 h; read-out: MBC>99.9
Acinetobacter baumannii [31] = assay: Bactericidal activity against Acinetobacter baumannii incubated for 4 hrs followed by culture spread on agar plates and cultured overnight; type: functional; settings: read-out: MBC>99.9
Klebsiella pneumoniae [32] = assay: Bactericidal activity against Klebsiella pneumoniae incubated for 4 hrs followed by culture spread on agar plates and cultured overnight; type: functional; settings: read-out: MBC>99.9

Row | Compound | MIC95 (Escherichia coli [1]) | MIC95 (Escherichia coli [2]) | MIC95 (Escherichia coli [3]) | MIC95 (Escherichia coli [4]) | MIC95 (Escherichia coli [5]) | MIC95 (Pseudomonas aeruginosa [6]) | MIC95 (Pseudomonas aeruginosa [7]) | MIC95 (Pseudomonas aeruginosa [8]) | MIC95 (Pseudomonas aeruginosa [9]) | MIC95 (Pseudomonas aeruginosa [10]) | MIC95 (Pseudomonas aeruginosa [11]) | MIC95 (Salmonella typhimurium [12]) | MIC95 (Salmonella typhimurium [13]) | MIC95 [14] | MIC95 (Acinetobacter baumannii [15]) | MIC95 (Klebsiella pneumoniae [16]) | MBC (Escherichia coli [17]) | MBC (Escherichia coli [18]) | MBC (Escherichia coli [19]) | MBC (Escherichia coli [20]) | further results
1 | CC[C@H](C)CCCCC(=O)N[C@@H](CCN)C(=O)N[C@H](C(=O)N[C@@H](CCN)C(=O)N[C@H]1CCNC(=O)[C@H]([C@@H](C)O)NC(=O)[C@H](CCN)NC(=O)[C@H](CCN)NC(=O)[C@H](CC(C)C)NC(=O)[C@@H](Cc2ccccc2)NC(=O)[C@H](CCN)NC1=O)[C@@H](C)O (X1-[Dab]T[Dab][Dab][Dab][dF]L[Dab][Dab]T; lactam 4-C) | 1 µM (≈ 1.2 µg/mL) | 0.5 µM (≈ 0.602 µg/mL) | 1 µM (≈ 1.2 µg/mL) | 0.5 µM (≈ 0.602 µg/mL) | 2 µM (≈ 2.41 µg/mL) | 2 µM (≈ 2.41 µg/mL) | 16 µM (≈ 19.3 µg/mL) | 4 µM (≈ 4.81 µg/mL) | 4 µM (≈ 4.81 µg/mL) | 4 µM (≈ 4.81 µg/mL) | 2 µM (≈ 2.41 µg/mL) | 2 µM (≈ 2.41 µg/mL) | 2 µM (≈ 2.41 µg/mL) | 0.5 µM (≈ 0.602 µg/mL) | 0.25 µM (≈ 0.301 µg/mL) | 4 µM (≈ 4.81 µg/mL) | 2 µM (≈ 2.41 µg/mL) | 1 µM (≈ 1.2 µg/mL) | 2 µM (≈ 2.41 µg/mL) | 1 µM (≈ 1.2 µg/mL) | MBC (Escherichia coli [21]): 2 µM (≈ 2.41 µg/mL); MBC (Pseudomonas aeruginosa [22]): 2 µM (≈ 2.41 µg/mL); MBC (Pseudomonas aeruginosa [23]): 32 µM (≈ 38.5 µg/mL); MBC (Pseudomonas aeruginosa [24]): 8 µM (≈ 9.63 µg/mL); MBC (Pseudomonas aeruginosa [25]): 4 µM (≈ 4.81 µg/mL); MBC (Pseudomonas aeruginosa [26]): 8 µM (≈ 9.63 µg/mL); MBC (Pseudomonas aeruginosa [27]): 4 µM (≈ 4.81 µg/mL); MBC (Salmonella typhimurium [28]): 4 µM (≈ 4.81 µg/mL); MBC (Salmonella typhimurium [29]): 4 µM (≈ 4.81 µg/mL); MBC [30]: 1 µM (≈ 1.2 µg/mL); MBC (Acinetobacter baumannii [31]): 0.25 µM (≈ 0.301 µg/mL); MBC (Klebsiella pneumoniae [32]): 8 µM (≈ 9.63 µg/mL)
2 | NCC[C@H](O)C(=O)N[C@@H]1C[C@H](N)[C@@H](O[C@H]2O[C@H](CN)[C@@H](O)[C@H](O)[C@H]2O)[C@H](O)[C@H]1O[C@H]1O[C@H](CO)[C@@H](O)[C@H](N)[C@H]1O [AMIKACIN] | 0.0625 µM (≈ 0.0366 µg/mL) | 0.0625 µM (≈ 0.0366 µg/mL) | 0.0625 µM (≈ 0.0366 µg/mL) | 0.0625 µM (≈ 0.0366 µg/mL) | 0.0625 µM (≈ 0.0366 µg/mL) | 0.125 µM (≈ 0.0732 µg/mL) | 0.0625 µM (≈ 0.0366 µg/mL) | 0.125 µM (≈ 0.0732 µg/mL) | > 64 µM | 0.125 µM (≈ 0.0732 µg/mL) | 0.25 µM (≈ 0.146 µg/mL) | 0.125 µM (≈ 0.0732 µg/mL) | 0.0625 µM (≈ 0.0366 µg/mL) | 0.0625 µM (≈ 0.0366 µg/mL) | 0.0625 µM (≈ 0.0366 µg/mL) | 0.0625 µM (≈ 0.0366 µg/mL) | 0.125 µM (≈ 0.0732 µg/mL) | 0.125 µM (≈ 0.0732 µg/mL) | 0.0625 µM (≈ 0.0366 µg/mL) | 0.0625 µM (≈ 0.0366 µg/mL) | MBC (Escherichia coli [21]): 0.125 µM (≈ 0.0732 µg/mL); MBC (Pseudomonas aeruginosa [22]): 0.25 µM (≈ 0.146 µg/mL); MBC (Pseudomonas aeruginosa [23]): 0.125 µM (≈ 0.0732 µg/mL); MBC (Pseudomonas aeruginosa [24]): 0.125 µM (≈ 0.0732 µg/mL); MBC (Pseudomonas aeruginosa [25]): > 64 µM; MBC (Pseudomonas aeruginosa [26]): 0.25 µM (≈ 0.146 µg/mL); MBC (Pseudomonas aeruginosa [27]): 0.25 µM (≈ 0.146 µg/mL); MBC (Salmonella typhimurium [28]): 0.125 µM (≈ 0.0732 µg/mL); MBC (Salmonella typhimurium [29]): 0.125 µM (≈ 0.0732 µg/mL); MBC [30]: 0.0625 µM (≈ 0.0366 µg/mL); MBC (Acinetobacter baumannii [31]): 0.125 µM (≈ 0.0732 µg/mL); MBC (Klebsiella pneumoniae [32]): 0.125 µM (≈ 0.0732 µg/mL)
3 | CN[C@H](CC(C)C)C(=O)N[C@H]1C(=O)N[C@@H](CC(N)=O)C(=O)N[C@H]2C(=O)N[C@H]3C(=O)N[C@H](C(=O)N[C@H](C(=O)O)c4cc(O)cc(O)c4-c4cc3ccc4O)[C@H](O)c3ccc(c(Cl)c3)Oc3cc2cc(c3O[C@@H]2O[C@H](CO)[C@@H](O)[C@H](O)[C@H]2O[C@H]2C[C@](C)(N)[C@H](O)[C@H](C)O2)Oc2ccc(cc2Cl)[C@H]1O [VANCOMYCIN] | 8 µM (≈ 11.6 µg/mL) | 16 µM (≈ 23.2 µg/mL) | 4 µM (≈ 5.8 µg/mL) | 2 µM (≈ 2.9 µg/mL) | 4 µM (≈ 5.8 µg/mL) | > 64 µM | 8 µM (≈ 11.6 µg/mL) | 32 µM (≈ 46.4 µg/mL) | 64 µM (≈ 92.8 µg/mL) | 64 µM (≈ 92.8 µg/mL) | 64 µM (≈ 92.8 µg/mL) | 8 µM (≈ 11.6 µg/mL) | 8 µM (≈ 11.6 µg/mL) | 8 µM (≈ 11.6 µg/mL) | 2 µM (≈ 2.9 µg/mL) | 16 µM (≈ 23.2 µg/mL) | 16 µM (≈ 23.2 µg/mL) | 16 µM (≈ 23.2 µg/mL) | 4 µM (≈ 5.8 µg/mL) | 4 µM (≈ 5.8 µg/mL) | MBC (Escherichia coli [21]): 4 µM (≈ 5.8 µg/mL); MBC (Pseudomonas aeruginosa [22]): > 64 µM; MBC (Pseudomonas aeruginosa [23]): 16 µM (≈ 23.2 µg/mL); MBC (Pseudomonas aeruginosa [24]): 64 µM (≈ 92.8 µg/mL); MBC (Pseudomonas aeruginosa [25]): > 64 µM; MBC (Pseudomonas aeruginosa [26]): > 64 µM; MBC (Pseudomonas aeruginosa [27]): > 64 µM; MBC (Salmonella typhimurium [28]): 8 µM (≈ 11.6 µg/mL); MBC (Salmonella typhimurium [29]): 16 µM (≈ 23.2 µg/mL); MBC [30]: 8 µM (≈ 11.6 µg/mL); MBC (Acinetobacter baumannii [31]): 2 µM (≈ 2.9 µg/mL); MBC (Klebsiella pneumoniae [32]): 32 µM (≈ 46.4 µg/mL)
